Test results taken from US7686975B2, “Use of acylcyclohexanedione derivatives for improving the tolerance of plants to cold and/or frost” (BASF Aktiengesellschaft, priority 2003, dated 2010).

Columns and labels:
Format in all cases: in vivo
apple flowers [1] = assay: Frost damage on apple flowers, simulated frost event
Source text: To study the effect of compounds I used in accordance with the invention, flower buds or flowers of various apple varieties were sprayed to run-off point at different stages and different points in time with prohexadione-calcium in the form of the commercial preparation Regalis® from BASF AG in the form of 10% strength granules with 250 ppm of active substance or with a mixture of vitamin E and glycerol (see treatments a) to d)) and subjected to a naturally occurring or simulated frost event during mid-bloom. The treated flowering branches and untreated flowering branches which had been subjected to the same frost event and which acted as control, were subsequently transferred for 2 to 4 days into a greenhouse with temperatures ranging from 15 to 25° C., and the floral injury was assessed. Apple branches with flower buds or flowers (R. Cox) were treated as specified under a.1), b.1), c.1) or d.1) and subsequently subjected to a simulated frost event. Nine days (a.1)) or one day (b.1)-d.1)) after the treatment, the treated flowering branches and untreated control branches were cut off and subjected to a simulated frost event. The temperature program of the simulated frost event was as follows: • chilling from 12° C. to 4° C. within 30 minutes • one hour at 4° C. • chilling from 4° C. to 2° C. within 15 minutes • 75 minutes at 2° C. • chilling from 2° C. to −3° C. within 30 minutes • 150 minutes at −3° C. Two days after the frost event, the floral damage was assessed by examining the individual flowers. At the time of evaluation, the flowers were in the floral stage BBCH 54-56 (BBCH=Biologische Bundesanstalt für Land- und Forstwirtschaft, Bundessortenamt und Chemische Industrie [Federal Biological Institute for Agriculture and Forestry, Federal Office for Crop Plant Varieties, Chemical Industry]). Those flowers whose ovary is brownish in color are considered as damaged (destroyed). The data which represent the percentage of damaged flowers correspond to the mean±standard deviation. A statistically significant difference (critical difference: 5%) between the means of the various measurement series is identified by different letters. Apple branches with flower buds or flowers (R. Cox) were treated analogously to Example 1.1.1, but remained for 210 minutes in the frost chamber at −3° C. Apple branches with flower buds or flowers (Jonagold) were treated analogously to Example 1.1.1. They remained for 150 minutes in the frost chamber at −3° C. At the time of evaluation, the flowers were in floral stage BBCH 56-57. Apple branches with flower buds or flowers (Jonagold) were treated analogously to Example 1.1.3, but remained for 210 minutes in the frost chamber at −3° C. Apple branches with flower buds or flowers (Gala) were treated as described under a.2), b.2), c.2) or d.2) and subsequently subjected to a simulated frost event. 11 days (a.2)) or two days (b.2)-d.2)) after the treatment, the treated flowering branches and untreated control branches were cut off and subjected to a simulated frost event. The temperature program of the simulated frost event corresponded to the one in Example 1.1.1. Four days after the frost event, the floral damage was assessed by examining the individual flowers. At the time of evaluation, the flowers were in floral stage BBCH 57-59. Apple branches with flower buds or flowers (Boskoop) were treated analogously to Example 1.1.5. At the time of evaluation, the flowers were in floral stage BBCH 59-61. They remained at −3° C. for 150 minutes.

apple flowers [2] = assay: Frost damage on apple flowers, naturally occurring frost event
Source text: To study the effect of compounds I used in accordance with the invention, flower buds or flowers of various apple varieties were sprayed to run-off point at different stages and different points in time with prohexadione-calcium in the form of the commercial preparation Regalis® from BASF AG in the form of 10% strength granules with 250 ppm of active substance or with a mixture of vitamin E and glycerol (see treatments a) to d)) and subjected to a naturally occurring or simulated frost event during mid-bloom. The treated flowering branches and untreated flowering branches which had been subjected to the same frost event and which acted as control, were subsequently transferred for 2 to 4 days into a greenhouse with temperatures ranging from 15 to 25° C., and the floral injury was assessed. Apple branches with flower buds or flowers (R. Cox) were treated as described under a.3), b.3), c.3) or d.3) and subsequently subjected to a naturally occurring frost event. The frost period lasted 5 days. The lowest temperature was reached on day two of the frost event and was −4° C. One day after the frost event, the treated flowering branches and untreated control branches were cut off. One day after the branches had been cut off, the floral damage was assessed by examining the individual flowers. At the time of evaluation, the flowers were in floral stage BBCH 56-57. Apple branches with flower buds or flowers (Jonagold) were treated analogously to Example 1.2.1 and exposed to the same frost event. At the time of evaluation, the flowers were in floral stage BBCH 57-59. Apple branches with flower buds or flowers (Boskoop) were treated as described under a.4), b.4), c.4) or d.4) and subsequently subjected to a naturally occurring frost event. The frost period lasted for one day. The lowest temperature was −1.2° C. Two days after the frost event, the treated flowering branches and untreated control branches were cut off, and one day after the branches had been cut off, the floral damage was assessed by examining the individual flowers. At the time of evaluation, the flowers were in floral stage BBCH 57-61.

apple seedlings = assay: Photochemical efficacy of electron transport (Fv/Fm, PAM fluorometer) in apple seedlings after simulated frost event; conditions: Golden Delicious seedlings
Method: Intact photosynthesis in leaves and other green plant tissues is of utmost importance for frost resistance and the intensity of the subsequent regeneration processes. To study the effect of compounds I which were used in accordance with the invention, the photosynthesis rate of treated (a.5) to (e.5)) and untreated apple seedlings which had been subjected to a simulated frost event was determined.
The material used for the experiments was apple seedlings which had been grown from seeds of Golden Delicious apples following cold stratification under controlled-environment cabinet conditions (temperature approx. 20° C.; relative atmospheric humidity approx. […]; day:night=10.5:13.5 hours; light intensity approx. 200 μmol m^−2 s^−1) and which had three to four fully formed leaves at the point in time of treatment. Batches of 10 plants per combination were treated as follows:
To simulate the frost event, the plants were subjected to the following chill program: • removal from the controlled-environment cabinet (20° C.) • transfer into the chill cell to randomized positions at a height of approximately 40 cm for approx. 6 hours at 12° C. • 2 hours at 4° C. • 1.5 hours at 2° C. • 1 hour at 0° C. • 3.5 hours at −3° C. • controlled-environment cabinet (20° C.)
The photosynthesis rate of the stressed apple seedlings was subsequently determined with the aid of a pulse amplitude modulation fluorometer (PAM 2000, Heinz Walz GmbH, Effeltrich). The quotient Fv/Fm, which is determined, describes the amount of light energy captured by the photosynthesis apparatus of the plants which can be exploited for the production of assimilates. Fv represents the variable fluorescence, which corresponds to the difference between F0 (basal fluorescence, which is measured when a dark-adapted leaf is irradiated with fluorescence-exciting light) and Fm (maximum fluorescence of a dark-adapted leaf) (Fv/Fm=(Fm−F0)/Fm).

SMILES: CCC(=O)C1=C([O-])CC(C(=O)[O-])CC1=O.[Ca+2] (centres unmarked) [prohexadione-calcium]
- Percentage of damage to flowers (apple flowers [1]; Boskoop, buds sprayed eleven days prior to simulated frost, prohexadione-calcium 250 ppm, 150 minutes at −3° C., mean±SD): significantly fewer
- Percentage of damage to flowers (apple flowers [1]; Boskoop; buds sprayed eleven days prior to simulated frost; prohexadione-calcium 250 ppm; 150 minutes at −3° C.; mean±SD; listed as a.2)): 33.6 ± 4.1%
- Percentage of damage to flowers (apple flowers [1]; Boskoop, flowers (mid-bloom) sprayed two days prior to simulated frost, prohexadione-calcium 250 ppm, 150 minutes at −3° C., mean±SD): significantly fewer
- Percentage of damage to flowers (apple flowers [1]; Boskoop, flowers (mid-bloom) sprayed two days prior to simulated frost; prohexadione-calcium 250 ppm; 150 minutes at −3° C.; mean±SD; listed as b.2)): 36.8 ± 4.2%
- Percentage of damage to flowers (apple flowers [1]; Gala, buds sprayed eleven days prior to simulated frost, prohexadione-calcium 250 ppm, 150 minutes at −3° C., assessed four days after frost, mean±SD): tends to reduce the damage
- Percentage of damage to flowers (apple flowers [1]; Gala; buds sprayed eleven days prior to simulated frost; prohexadione-calcium 250 ppm; 150 minutes at −3° C.; assessed four days after frost; mean±SD; listed as a.2)): 5.2 ± 1.8%
- Percentage of damage to flowers (apple flowers [1]; Gala, flowers (mid-bloom) sprayed two days prior to simulated frost, prohexadione-calcium 250 ppm, 150 minutes at −3° C., assessed four days after frost, mean±SD): 8.8 ± 2.5%
- Percentage of damage to flowers (apple flowers [1]; Jonagold, buds sprayed nine days prior to simulated frost, prohexadione-calcium 250 ppm, 150 minutes at −3° C., mean±SD): significantly fewer
- Percentage of damage to flowers (apple flowers [1]; Jonagold; buds sprayed nine days prior to simulated frost; prohexadione-calcium 250 ppm; 150 minutes at −3° C.; mean±SD; listed as a.1)): 54.4 ± 3.2%
- Percentage of damage to flowers (apple flowers [1]; Jonagold, buds sprayed nine days prior to simulated frost, prohexadione-calcium 250 ppm, 210 minutes at −3° C., mean±SD): significantly less damage
- Percentage of damage to flowers (apple flowers [1]; Jonagold; buds sprayed nine days prior to simulated frost; prohexadione-calcium 250 ppm; 210 minutes at −3° C.; mean±SD; listed as a.1)): 43.8 ± 4.2%
- Percentage of damage to flowers (apple flowers [1]; Jonagold, flowers (mid-bloom) sprayed one day prior to simulated frost, prohexadione-calcium 250 ppm, 150 minutes at −3° C., mean±SD): 69.0 ± 2.9%
- Percentage of damage to flowers (apple flowers [1]; Jonagold, flowers (mid-bloom) sprayed one day prior to simulated frost, prohexadione-calcium 250 ppm, 210 minutes at −3° C., mean±SD): significantly less damage
- Percentage of damage to flowers (apple flowers [1]; Jonagold, flowers (mid-bloom) sprayed one day prior to simulated frost; prohexadione-calcium 250 ppm; 210 minutes at −3° C.; mean±SD; listed as b.1)): 66.0 ± 2.7%
- Percentage of damage to flowers (apple flowers [1]; R. Cox, buds sprayed nine days prior to simulated frost, prohexadione-calcium 250 ppm, 210 minutes at −3° C., mean±SD): significantly fewer
- Percentage of damage to flowers (apple flowers [1]; R. Cox; buds sprayed nine days prior to simulated frost; prohexadione-calcium 250 ppm; 210 minutes at −3° C.; mean±SD; listed as a.1)): 6.0 ± 1.2%
- Percentage of damage to flowers (apple flowers [1]; R. Cox, buds sprayed to run-off nine days prior to simulated frost, prohexadione-calcium 250 ppm, 150 minutes at −3° C., assessed two days after frost, mean±SD): significantly fewer
- Percentage of damage to flowers (apple flowers [1]; R. Cox; buds sprayed to run-off nine days prior to simulated frost; prohexadione-calcium 250 ppm; 150 minutes at −3° C.; assessed two days after frost; mean±SD; listed as a.1)): 15.6 ± 2.5%
- Percentage of damage to flowers (apple flowers [1]; R. Cox, flowers (mid-bloom) sprayed one day prior to simulated frost, prohexadione-calcium 250 ppm, 210 minutes at −3° C., mean±SD): 33.3 ± 2.6%
- Percentage of damage to flowers (apple flowers [1]; R. Cox, flowers (mid-bloom) sprayed to run-off one day prior to simulated frost, prohexadione-calcium 250 ppm, 150 minutes at −3° C., assessed two days after frost, mean±SD): 23.1 ± 2.4%
- Percentage of damage to flowers (apple flowers [2]; Boskoop, buds sprayed thirteen days prior to natural frost, prohexadione-calcium 250 ppm, frost one day, lowest −1.2° C., mean±SD): 84.3 ± 3.3%
- Percentage of damage to flowers (apple flowers [2]; Boskoop, flowers (mid-bloom) sprayed five days prior to natural frost, prohexadione-calcium 250 ppm, frost one day, lowest −1.2° C., mean±SD): significantly fewer
- Percentage of damage to flowers (apple flowers [2]; Boskoop, flowers (mid-bloom) sprayed five days prior to natural frost; prohexadione-calcium 250 ppm; frost one day, lowest −1.2° C.; mean±SD; listed as b.4)): 74.7 ± 3.0%
- Percentage of damage to flowers (apple flowers [2]; Jonagold, buds sprayed ten days prior to natural frost, prohexadione-calcium 250 ppm, frost period 5 days, lowest −4° C., mean±SD): 67.5 ± 2.3%
- Percentage of damage to flowers (apple flowers [2]; Jonagold, flowers (mid-bloom) sprayed two days prior to natural frost, prohexadione-calcium 250 ppm, frost period 5 days, lowest −4° C., mean±SD): 67.7 ± 2.6%
- Percentage of damage to flowers (apple flowers [2]; R. Cox, buds sprayed ten days prior to natural frost, prohexadione-calcium 250 ppm, frost period 5 days, lowest −4° C., mean±SD): reduced floral damage
- Percentage of damage to flowers (apple flowers [2]; R. Cox; buds sprayed ten days prior to natural frost; prohexadione-calcium 250 ppm; frost period 5 days, lowest −4° C.; mean±SD; listed as a.3)): 88.3 ± 1.3%
- Percentage of damage to flowers (apple flowers [2]; R. Cox, flowers (mid-bloom) sprayed two days prior to natural frost, prohexadione-calcium 250 ppm, frost period 5 days, lowest −4° C., mean±SD): reduced floral damage
- Percentage of damage to flowers (apple flowers [2]; R. Cox, flowers (mid-bloom) sprayed two days prior to natural frost; prohexadione-calcium 250 ppm; frost period 5 days, lowest −4° C.; mean±SD; listed as b.3)): 76.6 ± 1.7%
- Fv/Fm (apple seedlings; sprayed 2 days prior to simulated frost (3.5 hours at −3° C.), prohexadione-calcium 50 ppm, 24 hours after frost): survived the frost event virtually undamaged
- Fv/Fm (apple seedlings; sprayed 2 days prior to simulated frost (3.5 hours at −3° C.); prohexadione-calcium 50 ppm; 24 hours after frost; listed as c.5)): 0.804
- Fv/Fm (apple seedlings; sprayed 8 days prior to simulated frost (3.5 hours at −3° C.), 50 ppm prohexadione-calcium, 24 hours after frost): survived the frost event virtually undamaged
- Fv/Fm (apple seedlings; sprayed 8 days prior to simulated frost (3.5 hours at −3° C.); 50 ppm prohexadione-calcium; 24 hours after frost; listed as b.5)): 0.809
- Fv/Fm (apple seedlings; sprayed 21 days prior to simulated frost (3.5 hours at −3° C.), 50 ppm prohexadione-calcium, 24 hours after frost): survived the frost event virtually undamaged
- Fv/Fm (apple seedlings; sprayed 21 days prior to simulated frost (3.5 hours at −3° C.); 50 ppm prohexadione-calcium; 24 hours after frost; listed as a.5)): 0.812
